Columns and labels:
[1] = tested on: mouse lipoproteins
[2] = tolerability in healthy mice (body weight); format: in vivo; settings: healthy C57BL/6 mice, average weights
Protocol: As described herein, healthy C57BL/6 mice were intraperitoneally (i.p.) administered daily for 7 consecutive days with GF9 at indicated doses Mouse body weight (BW) was measured daily.

[3] = tested on: J774A.1 macrophages; assay: In vitro macrophage endocytosis of fluorescent peptides with or without HDL; format: cell-based, mouse; settings: in the presence or absence of HDL
Protocol: The BALB/c murine macrophage cell line J774A.1 (ATCC TIB-67) were obtained from the American Type Culture Collection (ATCC, Manassas, Va.). The macrophage cells were cultured at 37° C. with 5% CO2 in Dulbecco's modified Eagle's medium (DMEM) (Cellgro, Mediatech Inc, Manassas, Va.) with 2 mM glutamine, 100 U/ml penicillin, 0.1 mg/ml streptomycin, and 10% fetal bovine serum (FBS) (Cellgro, Mediatech Inc, Manassas, Va.) and grown to approximately 90% of confluence in 6-well tissue culture plates (Corning, Tewksbury, Mass.). Cells were incubated for varied time periods from 4 to 24 h at 37° C. with fluorescently labeled peptides (pre-incubated with 1 mg/ml HDL) at a concentration of 4 μM rhodamine B (rho-B). After incubation, cells were washed twice with PBS and lysed using Promega passive lysis buffer (Promega, Madison, Wis.). The rho B fluorescence was measured in the lysates with a 540 nm excitation and a 590 nm emission filters using the Gemini EM fluorescence microplate reader (Molecular Devices, Sunnyvale, Calif.). The protein concentration in the lysates was determined using the Bradford reagent (Bio-Rad, Richmond, Calif.) and the SpectraMax 190 microplate reader (Molecular Devices, Sunnyvale, Calif.).
In one embodiment, after reaching target confluency, cells were incubated for 1 h in medium with or without fucoidan (400 μg/mL), BLT-1 (10 μM) or cytochalasin D (40 μM), Cells were subsequently incubated for 4 h and 22 h at 37° C. in medium containing 2 μM of rho B-labeled peptides G-KV21 and G-HV21 (as calculated for rho B) that were pre-incubated with 1 mg/ml HDL. After incubation, cells were washed twice with PBS and lysed using Promega passive lysis buffer. The rho B fluorescence and protein concentration were measured in the lysates as described above.

[4] = tested on: LPS-stimulated J774A.1 macrophages (TNF-alpha, IL-6, IL-1beta); assay: In vitro cytokine release by LPS-stimulated macrophages; format: cell-based, mouse; settings: 10 ng/ml after pre-incubation with HDL; LPS 1 μg/ml, 24 h
Protocol: (§1) The BALB/c murine macrophage cell line J774A.1 (ATCC TIB-67) were obtained from the American Type Culture Collection (ATCC, Manassas, Va.). Macrophages were cultured in 48-well plates (Corning, Cambridge, Mass.) for 24 h at 37° C. in the presence of LPS (1 μg/ml, Escherichia coli 055:B5, Sigma) in combination with 10 ng/ml peptides either pre-incubated or not with HDL. Cell-free supernatants were harvested and stored at −20° C. for later cytokine quantification. TNF-alpha, IL-6, and IL-1beta were assayed using commercial ELISA kits (Pierce Biotechnology, Thermo Scientific, Rockford, Ill.) according to the recommendations of the manufacturer. Results were represented as the mean±S.D. of three independent experiments. Statistical significances in in vitro macrophage uptake assay were determined by two-tailed Student's t test.
as §1, with “Macrophages were cultured in 48-well plates (Corning, Cambridge, Mass.) for 24 h at 37° C. in the presence of LPS (1 μg/ml, Escherichia coli 055:B5, Sigma) in combination with 10 ng/ml peptides either pre-incubated or not with HDL.” left out

[5] = Mouse tolerability studies; format: in vivo; settings: female, C57BL/6, mouse, in vivo, ip, 400 mg/kg; free form, healthy mice
Protocol: Naïve, female C57BL/6 mice at 8 to 10 weeks of age (18 to 21 g) from the Jackson Laboratory were used. […] Clinical observations and body weights were made twice daily.
Naïve, female C57BL/6 mice at 8 to 10 weeks of age (18 to 21 g) from the Jackson Laboratory were used. Animals were randomly grouped (5 mice per group) and i.p. injected with 400 mg/kg G-HV21, G-KV21 or G-TE21. Clinical observations and body weights were made twice daily.

[6] = in vivo; cited from earlier work

| Compound | behaviour on ultracentrifugation of whole mouse serum [1] | toxicity in healthy mice [2] | macrophage endocytosis, effect of sulfoxidized methionine residue [3] | production of cytokines by LPS-stimulated macrophages [4] | MTD [5] [mg/kg] | safety in humans [6] |
| --- | --- | --- | --- | --- | --- | --- |
| CC(C)C[C@H](NC(=O)[C@H](Cc1ccccc1)NC(=O)CN)C(=O)N[C@@H](CO)C(=O)N[C@@H](CCCCN)C(=O)N[C@@H](CO)C(=O)N[C@@H](CC(C)C)C(=O)N[C@H](C(=O)N[C@@H](Cc1ccccc1)C(=O)N[C@H](C(=O)N[C@@H](CCCCN)C(=O)N1CCC[C@H]1C(=O)N[C@@H](CCC(=O)O)C(=O)N[C@@H](CO)C(=O)N[C@@H](CCC(=O)O)C(=O)N[C@@H](CCCNC(=N)N)C(=O)N[C@@H](CC[S+](C)[O-])C(=O)N1CCC[C@H]1C(=O)N[C@@H](CS)C(=O)N[C@H](C(=O)N[C@@H](CCC(=O)O)C(=O)O)[C@@H](C)O)[C@@H](C)O)C(C)C (stereo partly drawn) [G-TE21, reference compound] | sedimentate with serum proteins | No toxicity was observed | does not promote macrophage endocytosis neither in the presence or absence of HDL | does not affect on cytokine release by LPS-stimulated macrophages | ≥ 400 | – |
| LQEEDAGEYGCM [LR12] | – | – | – | – | – | safe |

Reference: US20210322508A1, “PEPTIDES AND COMPOSITIONS FOR TARGETED TREATMENT AND IMAGING” (SIGNABLOK, INC., priority 2018, published 2021)
